Data reported in patent US20090100532A1, “TRANSGENIC MICE EXPRESSING HYPERSENSITIVE NICOTINIC RECEPTORS” (CALIFORNIA INSTITUTE OF TECHNOLOGY, priority 2007, published 2009).
Where “and” joins values, the source holds several entries; their conditions need not be identical. Equal values may be shown once.

Legend:
[1] = tested on: substantia nigra DA and GABA neurons
WT and α6^L9′S mice = details: mouse, in vivo
[2] = tested on: αCtxMII-sensitive receptors (α6*)
[3] = in vivo; cited from earlier work
[4] = biological target: αCtxMII-resistant receptors (Mus musculus, UniProt O70174+Q9ERK7)
αCtxMII-resistant receptors, sequence (O70174 31-629, change not shown): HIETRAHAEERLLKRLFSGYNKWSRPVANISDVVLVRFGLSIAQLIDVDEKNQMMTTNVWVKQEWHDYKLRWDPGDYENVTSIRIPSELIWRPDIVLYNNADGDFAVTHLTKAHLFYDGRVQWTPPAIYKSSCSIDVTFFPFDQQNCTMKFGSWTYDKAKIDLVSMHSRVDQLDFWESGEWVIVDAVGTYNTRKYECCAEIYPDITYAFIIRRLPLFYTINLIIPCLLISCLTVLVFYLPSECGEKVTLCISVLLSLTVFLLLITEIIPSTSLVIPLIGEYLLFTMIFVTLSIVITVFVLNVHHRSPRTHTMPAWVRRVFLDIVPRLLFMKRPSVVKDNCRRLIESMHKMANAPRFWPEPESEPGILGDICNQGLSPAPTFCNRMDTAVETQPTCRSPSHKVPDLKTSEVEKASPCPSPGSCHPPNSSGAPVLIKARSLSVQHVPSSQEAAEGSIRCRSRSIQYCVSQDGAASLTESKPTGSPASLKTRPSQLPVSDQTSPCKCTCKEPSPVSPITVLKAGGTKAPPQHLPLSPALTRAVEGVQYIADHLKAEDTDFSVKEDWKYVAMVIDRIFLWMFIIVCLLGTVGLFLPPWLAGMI
αCtxMII-resistant receptors, sequence (Q9ERK7 26-501, change not shown): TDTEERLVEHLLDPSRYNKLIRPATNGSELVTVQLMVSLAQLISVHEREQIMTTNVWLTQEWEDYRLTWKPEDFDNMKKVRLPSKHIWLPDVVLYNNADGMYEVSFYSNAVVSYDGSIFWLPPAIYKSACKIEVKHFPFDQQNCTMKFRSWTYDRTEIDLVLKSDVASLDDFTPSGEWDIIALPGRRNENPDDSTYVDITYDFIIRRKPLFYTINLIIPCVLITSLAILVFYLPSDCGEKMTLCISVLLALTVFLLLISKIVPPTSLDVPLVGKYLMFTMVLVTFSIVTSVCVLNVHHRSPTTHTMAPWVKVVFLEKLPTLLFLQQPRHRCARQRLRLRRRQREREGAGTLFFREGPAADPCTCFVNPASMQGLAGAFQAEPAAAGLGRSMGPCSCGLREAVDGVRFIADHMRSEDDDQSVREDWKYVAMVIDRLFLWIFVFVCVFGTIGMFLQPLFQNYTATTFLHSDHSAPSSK

LC neurons (α6* nAChRs) = assay type: cell-based, mouse
nAChRs [5] = assay type: biochemical, mouse
Method: (§1) Neurotransmitter Release from Striatal Synaptosomes. After a mouse was sacrificed by cervical dislocation, its brain was removed and placed immediately on an ice-cold platform and brain regions were dissected. Tissues from each mouse were homogenized in 0.5 ml of ice-cold 0.32 M sucrose buffered with 5 mM HEPES, pH 7.5. A crude synaptosomal pellet was prepared by centrifugation at 12,000 g for 20 min. The pellets were resuspended in “uptake buffer”: 128 mM NaCl, 2.4 mM KCl, 3.2 mM CaCl2, 1.2 mM KH2PO4, 1.2 mM MgSO4, 25 mM HEPES, pH 7.5, 10 mM glucose. For DA uptake, buffer was supplemented with 1 mM ascorbic acid and 0.01 mM pargyline, whereas for GABA uptake, buffer was supplemented with 1 mM aminooxyacetic acid. For [^3H]GABA uptake, synaptosomes were incubated for 10 min at 37° C. […] For DA uptake, synaptosomes were incubated at 37° C. in uptake buffer for 10 min before addition of 100 nM [^3H]dopamine (1 μCi for every 0.2 ml of synaptosomes), and the suspension was incubated for an additional 5 min.
(§2) All experiments were conducted at room temperature using methods described previously (Nashmi et al., 2007; Salminen et al., 2007) with modifications for collection into 96-well plates. In brief, aliquots of synaptosomes (80 μl) were distributed onto filters and perfused with buffer (uptake buffer containing 0.1% bovine serum albumin and 1 μM atropine with 1 μM nomifensine (for DA release) or 0.1 μM NNC-711 [1-(2-(((diphenylmethylene)amino)oxy)ethyl)-1,2,5,6-tetrahydro-3-pyridinecarboxylic acid hydrochloride]) (for GABA release) at 0.7 ml/min for 10 min, or buffer for 5 min followed by buffer with 50 nM αCtxMII. […] Fractions (−0.1 ml) were collected for 4 min into 96-well plates every 10 sec starting from 1 min before stimulation, using a Gilson FC204 fraction collector with a multicolumn adapter (Gilson, Inc.; Middleton, Wis.). Radioactivity was determined by scintillation counting using a 1450 MicroBeta Trilux scintillation counter (Perkin Elmer Life Sciences-Wallac Oy; Turku, Finland) after addition of 0.15 ml Optiphase ‘SuperMix’ scintillation cocktail. Instrument efficiency was 40%.
(§3) Data were analyzed using SigmaPlot 5.0 for DOS. Perfusion data were plotted as counts per minute versus fraction number. Fractions collected before and after the peak were used to calculate baseline as a single exponential decay. The calculated baseline was subtracted from the experimental data. Fractions that exceeded baseline by 10% or more were sunmmed to give total released cpm and then normalized to baseline to give units of release [(cpm-baseline)/baseline]. Agonist dose response data were fit to the Hill equation.

[6] = in vivo; cited from earlier work; remark: listed apart in the source
α6^L9′S mice = details: mouse, in vivo
Method: Locomotor Activity. Mice used to study locomotion were eight to sixteen weeks old by the beginning of an experiment, and were back-crossed to C57BL/6 at least three times. […] Mouse horizontal locomotor activity was measured with an infrared photobeam activity cage system (San Diego Instruments; San Diego, Calif.). Ambulation events were recorded when two contiguous photobeams were broken in succession. Acute locomotor activity in response to nicotinic ligands or other agents was studied by recording ambulation events during four 15 sec intervals per minute for a designated number of minutes. For most experiments, groups of eight mice were placed in the activity cages (18×28 cm) and their baseline level of activity was recorded for eight minutes. Mice were removed from their cage, injected (100 μl per 25 g body mass), and returned to the cage within 15 sec. […] For generation of locomotor activity concentration-response relationship profiles, a group of mice was administered saline and, after five to eight days off, each successive dose of drug. […] For 48 h home cage monitoring, mice were isolated in their own cage and habituated to the test room and cage for 24 h. Following this, locomotor activity was recorded in 15 min intervals for 48 h.

α4β2* (non-α6) nAChRs = biological target: T1, α4β2* (non-α6) nAChRs (Mus musculus, UniProt O70174+Q9ERK7); assay: biochemical; assay type: biochemical
T1 construct: from tissue; host or cells: striatal / olfactory tubercle synaptosomes of WT and α6L9′S mice
T1 sequence (Q9ERK7 26-501): as the sequence (Q9ERK7 26-501, change not shown) above
T1 sequence (O70174 31-629): as the sequence (O70174 31-629, change not shown) above
Method: as §1, §2, §3

α6* nAChRs [7] = biological target: T2, α6* nAChRs (Mus musculus, UniProt Q9ERK7+Q9R0W9, L280S); assay: biochemical; assay type: biochemical
T2 construct: from tissue
T2 sequence (Q9ERK7 26-501, stated change not applied): as the sequence (Q9ERK7 26-501, change not shown) above
T2 sequence (Q8BMN3 31-464, further chain): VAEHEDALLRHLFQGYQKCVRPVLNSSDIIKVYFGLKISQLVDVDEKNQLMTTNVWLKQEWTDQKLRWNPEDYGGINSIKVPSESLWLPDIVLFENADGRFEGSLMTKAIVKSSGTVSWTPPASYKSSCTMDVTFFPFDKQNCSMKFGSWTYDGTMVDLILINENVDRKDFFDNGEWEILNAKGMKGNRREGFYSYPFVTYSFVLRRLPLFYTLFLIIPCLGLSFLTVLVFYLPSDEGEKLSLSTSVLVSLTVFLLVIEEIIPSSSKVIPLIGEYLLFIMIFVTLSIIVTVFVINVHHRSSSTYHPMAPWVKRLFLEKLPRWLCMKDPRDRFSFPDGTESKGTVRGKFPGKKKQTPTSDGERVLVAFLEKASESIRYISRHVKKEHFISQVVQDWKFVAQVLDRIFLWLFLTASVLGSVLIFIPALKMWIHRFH
T2 sequence (Q9R0W9 31-494 L280S): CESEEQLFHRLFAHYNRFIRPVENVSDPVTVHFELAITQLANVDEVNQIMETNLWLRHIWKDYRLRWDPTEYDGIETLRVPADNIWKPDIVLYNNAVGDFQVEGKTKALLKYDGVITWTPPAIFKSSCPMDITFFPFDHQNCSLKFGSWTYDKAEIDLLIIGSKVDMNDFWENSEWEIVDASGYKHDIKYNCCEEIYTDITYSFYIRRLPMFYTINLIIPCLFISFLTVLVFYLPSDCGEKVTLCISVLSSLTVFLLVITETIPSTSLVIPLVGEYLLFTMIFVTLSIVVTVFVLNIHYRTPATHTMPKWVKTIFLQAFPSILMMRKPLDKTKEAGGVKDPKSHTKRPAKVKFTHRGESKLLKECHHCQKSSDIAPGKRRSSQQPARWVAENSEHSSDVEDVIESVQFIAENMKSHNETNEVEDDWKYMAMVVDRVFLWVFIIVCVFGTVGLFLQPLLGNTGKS
Method: as §1, §2, §3

α6* nAChRs [8] = biological target: T3, α6* nAChRs (Mus musculus, UniProt Q9ERK7+Q9R0W9); assay: biochemical; assay type: biochemical
T3 construct: from tissue
T3 sequence (Q9R0W9 31-494): as the sequence (Q9R0W9 31-494 L280S) above, with S250L counted along it
T3 sequence (Q8BMN3 31-464, further chain): as the sequence (Q8BMN3 31-464, further chain) above
T3 sequence (Q9ERK7 26-501): as the sequence (Q9ERK7 26-501, change not shown) above
Method: as §1, §2, §3

nAChRs [9] = biological target: nAChRs (Mus musculus, UniProt O70174+Q9ERK7)
nAChRs (Mus musculus, UniProt O70174+Q9ERK7), sequence (Q9ERK7 26-501): as the sequence (Q9ERK7 26-501, change not shown) above
nAChRs (Mus musculus, UniProt O70174+Q9ERK7), sequence (O70174 31-629): as the sequence (O70174 31-629, change not shown) above
Method: as §1, §2, §3

α4β2* nAChRs = α4β2* nAChRs (Mus musculus, UniProt O70174+Q9ERK7)
α4β2* nAChRs, sequence (Q9ERK7 26-501): as the sequence (Q9ERK7 26-501, change not shown) above
α4β2* nAChRs, sequence (O70174 31-629): as the sequence (O70174 31-629, change not shown) above
Method: as §1, §2, §3

α6* nAChRs [10] = tested on: α6* nAChRs
Method: as §1, §2, §3

[11] = biological target: hypersensitive nicotinic receptors in α6L9′S VTA DA neurons (Mus musculus, UniProt Q9ERK7+Q9R0W9, L280S); assay type: cell-based
hypersensitive nicotinic receptors in α6L9′S VTA DA neurons, sequence (Q9ERK7 whole entry, looked up, stated change not applied): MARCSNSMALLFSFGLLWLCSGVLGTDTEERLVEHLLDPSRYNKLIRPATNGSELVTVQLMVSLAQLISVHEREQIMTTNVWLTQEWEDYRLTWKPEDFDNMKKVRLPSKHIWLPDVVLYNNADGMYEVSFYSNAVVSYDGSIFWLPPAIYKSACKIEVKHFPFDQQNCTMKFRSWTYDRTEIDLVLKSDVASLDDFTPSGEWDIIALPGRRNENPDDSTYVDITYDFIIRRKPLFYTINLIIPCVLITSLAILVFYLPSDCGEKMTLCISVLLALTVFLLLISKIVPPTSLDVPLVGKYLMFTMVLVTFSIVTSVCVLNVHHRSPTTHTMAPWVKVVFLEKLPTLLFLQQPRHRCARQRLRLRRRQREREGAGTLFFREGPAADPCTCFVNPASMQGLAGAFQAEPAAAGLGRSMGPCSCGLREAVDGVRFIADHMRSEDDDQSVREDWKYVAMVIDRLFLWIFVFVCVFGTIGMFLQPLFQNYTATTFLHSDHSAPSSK
hypersensitive nicotinic receptors in α6L9′S VTA DA neurons, sequence (Q9R0W9 whole entry, looked up, stated change not applied): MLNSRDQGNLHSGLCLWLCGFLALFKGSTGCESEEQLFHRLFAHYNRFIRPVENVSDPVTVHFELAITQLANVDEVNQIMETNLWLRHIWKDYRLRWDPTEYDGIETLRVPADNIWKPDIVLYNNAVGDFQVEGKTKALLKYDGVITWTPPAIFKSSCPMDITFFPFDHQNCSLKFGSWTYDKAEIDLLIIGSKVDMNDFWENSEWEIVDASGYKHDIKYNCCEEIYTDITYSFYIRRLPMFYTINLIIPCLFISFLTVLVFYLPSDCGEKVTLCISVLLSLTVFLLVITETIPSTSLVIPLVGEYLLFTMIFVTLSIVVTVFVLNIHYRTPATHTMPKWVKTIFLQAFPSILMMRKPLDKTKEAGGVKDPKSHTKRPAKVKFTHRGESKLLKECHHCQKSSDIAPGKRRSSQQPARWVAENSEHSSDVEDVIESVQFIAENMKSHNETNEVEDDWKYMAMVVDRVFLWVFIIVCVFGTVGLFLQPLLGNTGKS

α3β4 receptors = biological target: T4, α3β4 receptors (UniProt P12392+P32297); assay: Two-electrode voltage clamp, X. laevis oocytes, α3β4; assay type: cell-based
T4 construct: expressed in transfected cells; host or cells: Xenopus laevis oocytes injected with cRNA
T4 sequence (P32297 32-505): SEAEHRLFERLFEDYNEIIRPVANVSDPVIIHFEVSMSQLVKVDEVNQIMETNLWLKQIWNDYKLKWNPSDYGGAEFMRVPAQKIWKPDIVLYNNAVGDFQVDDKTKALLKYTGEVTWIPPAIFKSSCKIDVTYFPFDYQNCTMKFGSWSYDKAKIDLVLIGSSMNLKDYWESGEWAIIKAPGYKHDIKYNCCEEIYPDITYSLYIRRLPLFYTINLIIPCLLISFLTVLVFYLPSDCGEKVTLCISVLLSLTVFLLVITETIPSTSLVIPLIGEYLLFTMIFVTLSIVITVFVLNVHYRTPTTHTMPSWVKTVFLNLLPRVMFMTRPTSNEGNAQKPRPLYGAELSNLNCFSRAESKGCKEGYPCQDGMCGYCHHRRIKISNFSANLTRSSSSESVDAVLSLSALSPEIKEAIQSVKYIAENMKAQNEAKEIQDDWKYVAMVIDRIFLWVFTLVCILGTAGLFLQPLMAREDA
T4 sequence (P12392 21-495): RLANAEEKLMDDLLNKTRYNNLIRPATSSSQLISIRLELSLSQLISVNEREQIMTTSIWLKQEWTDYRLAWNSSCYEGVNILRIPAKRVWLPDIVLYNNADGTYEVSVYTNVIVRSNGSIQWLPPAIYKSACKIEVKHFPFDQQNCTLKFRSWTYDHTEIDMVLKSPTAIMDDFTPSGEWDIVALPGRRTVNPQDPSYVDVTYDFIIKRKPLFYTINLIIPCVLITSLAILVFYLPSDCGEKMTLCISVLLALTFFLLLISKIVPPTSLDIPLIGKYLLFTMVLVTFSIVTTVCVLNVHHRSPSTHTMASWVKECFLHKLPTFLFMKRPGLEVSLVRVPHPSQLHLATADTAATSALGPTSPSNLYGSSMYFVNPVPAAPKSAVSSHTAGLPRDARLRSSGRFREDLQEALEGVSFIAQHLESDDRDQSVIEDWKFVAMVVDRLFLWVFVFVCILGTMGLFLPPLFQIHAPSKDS
Method: (§4) Two-Electrode Voltage-Clamp Electrophysiology. Stage V to VI X. laevis oocytes were isolated as described previously (Quick and Lester, Ion Channels of Excitable Cells, Narahashi T ed., pp 261-279, 1994). Stock RNAs were diluted into diethyl pyrocarbonatetreated water and injected 1 day after isolation. RNA was injected in a final volume of 50 nl per oocyte using a digital microdispenser (Drummond Scientific, Broomall, Pa.). After injection, oocytes were incubated in ND-96 solution (96 mM NaCl, 2 mM KCl, 1 mM CaCl2, 1 mM MgCl2, and 5 mM HEPES/NaOH, pH 7.6) supplemented with 50 μg/ml gentamicin and 2.5 mM sodium pyruvate. After 1 to 4 days for nAChR expression, oocytes were used for recording or confocal microscopy.
(§5) Agonist-activated nicotinic receptor responses were measured by two-electrode voltage-clamp recording using a GeneClamp 500 (Molecular Devices, Sunnyvale, Calif.) voltage clamp. Electrodes were constructed from Kwik-Fil borosilicate glass capillary tubes (1B150F-4; WPI, Sarasota, Fla.) using a programmable microelectrode puller (P-87; Sutter Instrument Company, Novato, Calif.). The electrodes had tip resistances of 0.8 to 2.0 MΩ after filling with 3 M KCl. […]

α3β4β3 receptors = biological target: T5, α3β4β3 receptors (UniProt P12392+P32297); assay: Two-electrode voltage clamp, X. laevis oocytes, α3β4β3; assay type: cell-based
T5 construct: expressed in transfected cells; host or cells: Xenopus laevis oocytes injected with cRNA
T5 sequence (P32297 32-505): as the sequence (P32297 32-505) above
T5 sequence (P12392 21-495): as the sequence (P12392 21-495) above
T5 sequence (Q8BMN3 31-464 partner): as the sequence (Q8BMN3 31-464, further chain) above
Method: as §4, §5

α4Yβ2 receptors = assay type: cell-based, mouse
[12] = tested on: striatal (ST and OT combined) synaptosomes
Method: as §1, §2, §3

## CN1CCCC1c1cccnc1 (single isomer, unassigned) [nicotine]
[1]
  average responses (peak current) in GABA neurons: < 10 pA
  responses in WT DA and GABA neurons: undetectable
WT and α6^L9′S mice
  hypothermia response, WT versus α6^L9′S mice: No difference was found
VTA DA neurons
  firing rate in response to local application: significant increase in the firing rate
[2]
  αCtxMII-sensitive 86Rb+ efflux: hypersensitive to nicotine relative to WT
[3]
  concentration in the cerebrospinal fluid of smokers: ≤ 500 nM
[4]
  αCtxMII-resistant 86Rb+ efflux: unchanged
LC neurons (α6* nAChRs)
  responses to locally applied nicotine in LC neurons: larger responses
nAChRs [5]
  Rmax (±SEM), Total DA release: 33.1 ± 2.1 and 36.0 ± 1.3 and 34.3 ± 1.7 and 20.9 ± 1.0 and 21.4 ± 0.9 and 20.8 ± 1.2
  Total DA release by 10 μM nic (positive control): 16.69 and 19.68 and 20.65 and 17.70 and 17.30 and 16.70
[6]
  elimination half life: ~7 min
α6^L9′S mice
  tolerance or sensitization: change in locomotor behavior after repeated injections: did not produce any change in locomotor behavior
α4β2* (non-α6) nAChRs
  MII-resistant DA release by 10 μM nic (positive control): 14.55 and 8.75 and 10.78 and 15.07 and 8.91 and 10.26
α6* nAChRs [7]
  MII-sensitive DA release by 10 μM nic (positive control): 8.53 and 5.97 and 10.77 and 10.39
α6* nAChRs [8]
  MII-sensitive DA release by 10 μM nic (positive control): 3.19 and 1.63
  Rmax (±SEM), MII-sensitive DA release: 5.41 ± 0.54 and 7.03 ± 0.86
nAChRs [9]
  Rmax (±SEM), Total GABA release: 1.64 ± 0.32 and 1.25 ± 0.06 and 1.22 ± 0.11
α4β2* nAChRs
  Rmax (±SEM), MII-resistant GABA release: 1.40 ± 0.08 and 1.26 ± 0.08 and 1.30 ± 0.10
α6* nAChRs [10]
  EC50 (±SEM), MII-sensitive GABA release: no activity
  Rmax (±SEM), MII-sensitive GABA release: no activity
[11]
  inward currents elicited by puffs of 1 μM: larger than those seen in WT neurons at any concentration

## CC(=O)OCC[N+](C)(C)C [ACh, acetylcholine]
α3β4 receptors
  EC50: 165 ± 9 µM
α3β4β3 receptors
  EC50: 230 ± 22 µM
α4Yβ2 receptors
  voltage-clamped responses: 200-400 pA

## [K+] [K^+]
[12]
  GABA release stimulated by 20 mM K^+: 8.31 ± 0.34 and 8.24 ± 0.45 and 8.43 ± 0.50
